The record followed here is patent US8962674B2 (Tokyo Institute of Technology, priority 2006, dated 2015).

Consider `COc1cccc(/C=C/C(=O)CC(=O)/C=C/c2ccc(O)cc2)c1OC` [CU069, (1E,6E)-1-(2,3-dimethoxyphenyl)-7-(4-hydroxyphenyl)hepta-1,6-diene-3,5-dione], for which the melting point (commonly the temperature, or range, at which the solid turns liquid) was in the range of 70 to 72 °C.
In the case of `COc1cc(/C=C/C(=O)CC(=O)/C=C/c2cccc(OC)c2OC)ccc1O` [CU070, (1E,6E)-1-(2,3-dimethoxyphenyl)-7-(4-hydroxy-3-methoxyphenyl)hepta-1,6-diene-3,5-dione], the melting point lay in the range of 57 to 65 °C.
For `COc1ccc(/C=C/C(=O)CC(=O)/C=C/c2cccc(OC)c2OC)cc1O` [CU071, (1E,6E)-1-(2,3-dimethoxyphenyl)-7-(3-hydroxy-4-methoxyphenyl)hepta-1,6-diene-3,5-dione] the value was 144 to 148 °C; for `COc1ccc(/C=C/C(=O)CC(=O)/C=C/c2ccc(O)cc2)c(OC)c1` [CU072, (1E,6E)-1-(2,4-dimethoxyphenyl)-7-(4-hydroxyphenyl)hepta-1,6-diene-3,5-dione], 161 to 167 °C; for `COc1ccc(/C=C/C(=O)CC(=O)/C=C/c2ccc(O)c(OC)c2)c(OC)c1` [CU073, (1E,6E)-1-(2,4-dimethoxyphenyl)-7-(4-hydroxy-3-methoxyphenyl)hepta-1,6-diene-3,5-dione], 108 to 113 °C.
The result for `COc1ccc(/C=C/C(=O)CC(=O)/C=C/c2ccc(OC)c(O)c2)c(OC)c1` [CU074, (1E,6E)-1-(2,4-dimethoxyphenyl)-7-(3-hydroxy-4-methoxyphenyl)hepta-1,6-diene-3,5-dione] reads 64 to 70 °C; that for `COc1ccc(OC)c(/C=C/C(=O)CC(=O)/C=C/c2ccc(O)cc2)c1` [CU075, (1E,6E)-1-(2,5-dimethoxyphenyl)-7-(4-hydroxyphenyl)hepta-1,6-diene-3,5-dione], 70 to 74 °C.
For `COc1ccc(OC)c(/C=C/C(=O)CC(=O)/C=C/c2ccc(O)c(OC)c2)c1` [CU076, (1E,6E)-1-(2,5-dimethoxyphenyl)-7-(4-hydroxy-3-methoxyphenyl)hepta-1,6-diene-3,5-dione] the value was 127 to 129 °C; for `COc1ccc(OC)c(/C=C/C(=O)CC(=O)/C=C/c2ccc(OC)c(O)c2)c1` [CU077, (1E,6E)-1-(2,5-dimethoxyphenyl)-7-(3-hydroxy-4-methoxyphenyl)hepta-1,6-diene-3,5-dione], 63 to 68 °C.
Consider `COc1cc(/C=C/C(=O)CC(=O)/C=C/c2cccc(O)c2)ccc1O` [CU079, (1E,6E)-1-(4-hydroxy-3-methoxyphenyl)-7-(3-hydroxyphenyl)hepta-1,6-diene-3,5-dione], for which the melting point was in the range of 74 to 80 °C.
The result for `COc1ccc(/C=C/C(=O)CC(=O)/C=C/c2cccc(O)c2)cc1O` [CU081, (1E,6E)-1-(3-hydroxy-4-methoxyphenyl)-7-(3-hydroxyphenyl)hepta-1,6-diene-3,5-dione] reads 200 to 206 °C.
The result for `COc1cc(/C=C/C(=O)CC(=O)/C=C/c2ccccc2O)ccc1O` [CU082, (1E,6E)-1-(4-hydroxy-3-methoxyphenyl)-7-(2-hydroxyphenyl)hepta-1,6-diene-3,5-dione] reads 77 to 83 °C; that for `COc1cc(O)ccc1/C=C/C(=O)CC(=O)/C=C/c1ccc(O)cc1` [CU083, (1E,6E)-1-(4-hydroxyphenyl)-7-(4-hydroxy-2-methoxyphenyl)hepta-1,6-diene-3,5-dione], 105 to 110 °C.
The result for `COc1ccc(/C=C/C(=O)CC(=O)/C=C/c2ccccc2O)cc1O` [CU084, (1E,6E)-1-(2-hydroxyphenyl)-7-(3-hydroxy-4-methoxyphenyl)hepta-1,6-diene-3,5-dione] reads 90 to 96 °C.
On to `COc1cc(/C=C/C(=O)CC(=O)/C=C/c2ccc(O)cc2OC)ccc1O` [CU085, (1E,6E)-1-(4-hydroxy-2-methoxyphenyl)-7-(4-hydroxy-3-methoxyphenyl)hepta-1,6-diene-3,5-dione], for which the melting point is 203 to 208 °C.
For `COc1ccc(/C=C/C(=O)CC(=O)/C=C/c2ccc(O)cc2OC)cc1O` [CU086, (1E,6E)-1-(4-hydroxy-2-methoxyphenyl)-7-(3-hydroxy-4-methoxyphenyl)hepta-1,6-diene-3,5-dione] the value was 90 to 95 °C; for `COc1ccc(O)c(/C=C/C(=O)CC(=O)/C=C/c2ccc(O)c(OC)c2)c1` [CU088, (1E,6E)-1-(2-hydroxy-5-methoxyphenyl)-7-(4-hydroxy-3-methoxyphenyl)hepta-1,6-diene-3,5-dione], 78 to 80 °C.
`COc1ccc(O)c(/C=C/C(=O)CC(=O)/C=C/c2ccc(OC)c(O)c2)c1` [CU089, (1E,6E)-1-(2-hydroxy-5-methoxyphenyl)-7-(3-hydroxy-4-methoxyphenyl)hepta-1,6-diene-3,5-dione] came in with a melting point of 80 to 86 °C.
For `O=C(/C=C/c1ccc(O)cc1)CC(=O)/C=C/c1cc(O)ccc1O` [CU090, (1E,6E)-1-(2,5-dihydroxyphenyl)-7-(4-hydroxyphenyl)hepta-1,6-diene-3,5-dione] the value was 133 to 140 °C.
The result for `COc1ccc(/C=C/C(=O)CC(=O)/C=C/c2cc(O)ccc2O)cc1O` [CU091, (1E,6E)-1-(2,5-dihydroxyphenyl)-7-(3-hydroxy-4-methoxyphenyl)hepta-1,6-diene-3,5-dione] reads 115 to 121 °C.
Take `COc1cc(/C=C/C(=O)CC(=O)/C=C/c2cc(O)cc(O)c2)ccc1O` [CU093, (1E,6E)-1-(3,5-dihydroxyphenyl)-7-(4-hydroxy-3-methoxyphenyl)hepta-1,6-diene-3,5-dione]: the melting point fell in the range of 85 to 90 °C.
The result for `COc1cc(/C=C/C(=O)CC(=O)/C=C/c2cccc(O)c2O)ccc1O` [CU096, (1E,6E)-1-(2,3-dihydroxyphenyl)-7-(4-hydroxy-3-methoxyphenyl)hepta-1,6-diene-3,5-dione] reads 82 to 89 °C; that for `COc1cc(/C=C/C(=O)CC(=O)/C=C/c2ccc(O)cc2)cc(OC)c1` [CU099, (1E,6E)-1-(3,5-dimethoxyphenyl)-7-(4-hydroxyphenyl)hepta-1,6-diene-3,5-dione], 75 to 80 °C; that for `COc1cc(/C=C/C(=O)CC(=O)/C=C/c2ccc(O)c(OC)c2)cc(OC)c1` [CU100, (1E,6E)-1-(3,5-dimethoxyphenyl)-7-(4-hydroxy-3-methoxyphenyl)hepta-1,6-diene-3,5-dione], 50 to 55 °C.
The result for `COc1cc(/C=C/C(=O)CC(=O)/C=C/c2ccc(OC)c(O)c2)cc(OC)c1` [CU101, (1E,6E)-1-(3,5-dimethoxyphenyl)-7-(3-hydroxy-4-methoxyphenyl)hepta-1,6-diene-3,5-dione] reads 187 to 193 °C.
For `COc1cccc(OC)c1/C=C/C(=O)CC(=O)/C=C/c1ccc(O)cc1` [CU102, (1E,6E)-1-(2,6-dimethoxyphenyl)-7-(4-hydroxyphenyl)hepta-1,6-diene-3,5-dione] the value was 165 to 170 °C.
`COc1cc(/C=C/C(=O)CC(=O)/C=C/c2c(OC)cccc2OC)ccc1O` [CU103, (1E,6E)-1-(2,6-dimethoxyphenyl)-7-(4-hydroxy-3-methoxyphenyl)hepta-1,6-diene-3,5-dione] had a melting point of 136 to 139 °C.
The result for `COc1ccc(/C=C/C(=O)CC(=O)/C=C/c2ccc(O)c(OC)c2)cc1O` [CU105, (1E,6E)-1-(3-hydroxy-4-methoxyphenyl)-7-(4-hydroxy-3-methoxyphenyl)hepta-1,6-diene-3,5-dione] reads 78 to 85 °C; that for `COc1cc(/C=C/C(=O)CC(=O)/C=C/c2cc(O)ccc2O)ccc1O` [CU106, (1E,6E)-1-(2,5-dihydroxyphenyl)-7-(4-hydroxy-3-methoxyphenyl)hepta-1,6-diene-3,5-dione], 125 to 130 °C; that for `CCn1c2ccccc2c2cc(/C=C/C(=O)CC(=O)/C=C/c3ccc(OC)c(O)c3)ccc21` [CU108, (1E,6E)-1-(9-ethyl-9H-carbazol-3-yl)-7-(3-hydroxy-4-methoxyphenyl)hepta-1,6-diene-3,5-dione], 100 to 103 °C.
Molecule `COc1ccc(/C=C/C(=O)CC(=O)/C=C/c2c(OC)ccc3ccccc23)cc1O` [CU117, (1E,6E)-1-(3-hydroxy-4-methoxyphenyl)-7-(2-methoxynaphthalen-1-yl)hepta-1,6-diene-3,5-dione] had a melting point of 150 to 155 °C.
For `COc1cc(/C=C/C(=O)CC(=O)/C=C/c2ccc(OC)c3ccccc23)ccc1O` [CU118, (1E,6E)-1-(4-hydroxy-3-methoxyphenyl)-7-(4-methoxynaphthalen-1-yl)hepta-1,6-diene-3,5-dione] the value was 193 to 196 °C.
For `CN(C)c1ccc(/C=C/C(=O)CC(=O)/C=C/c2ccc(O)cc2)c2ccccc12` [CU119, (1E,6E)-1-(4-dimethylaminonaphthalen-1-yl)-7-(4-hydroxyphenyl)hepta-1,6-diene-3,5-dione] the value was 82 to 86 °C; for `Cn1cccc1/C=C/C(=O)CC(=O)/C=C/c1ccc(O)cc1` [CU120, (1E,6E)-1-(4-hydroxyphenyl)-7-(1-methyl-1H-pyrrol-2-yl)hepta-1,6-diene-3,5-dione], 169 to 173 °C.
In turn, `Cn1cc(/C=C/C(=O)CC(=O)/C=C/c2ccc(O)cc2)c2ccccc21` [CU123, (1E,6E)-1-(4-hydroxyphenyl)-7-(1-methyl-1H-indol-3-yl)hepta-1,6-diene-3,5-dione] came in with a melting point of 185 to 190 °C.
The result for `COc1cc(/C=C/C(=O)CC(=O)/C=C/c2cn(C)c3ccccc23)ccc1O` [CU124, (1E,6E)-1-(4-hydroxy-3-methoxyphenyl)-7-(1-methyl-1H-indol-3-yl)hepta-1,6-diene-3,5-dione] reads 173 to 175 °C; that for `COc1ccc(/C=C/C(=O)CC(=O)/C=C/c2cn(C)c3ccccc23)cc1O` [CU125, (1E,6E)-1-(3-hydroxy-4-methoxyphenyl)-7-(1-methyl-1H-indol-3-yl)hepta-1,6-diene-3,5-dione], 162 to 166 °C; that for `Cn1c(/C=C/C(=O)CC(=O)/C=C/c2ccc(O)cc2)cc2ccccc21` [CU126, (1E,6E)-1-(4-hydroxyphenyl)-7-(1-methyl-1H-indol-2-yl)hepta-1,6-diene-3,5-dione], 208 to 213 °C.
